Experimental data: patent US20080146662A1, “Methods and compositions for treatment of cancer pain” (priority 2002, published 2008)

How the values were obtained:
Assay type in all cases: in vivo
[1] = system: rat model of bone cancer pain (MRMT-1 rat mammary gland carcinoma cells); assay: Weight-bearing difference in rat model of bone cancer pain (intra-tibial MRMT-1 cells); settings: for weight-bearing difference between contralateral and ipsilateral paw: vs vehicle
Method: Adult female rats are given intra-tibial injections of MRMT-1 rat mammary gland carcinoma cells (3 μl, 10^7 cells/ml). These animals gradually develop mechanical hyperalgesia, mechanical allodynia (skin sensitivity to non-noxious stimuli) and hind limb sparing, beginning on day 12-14 following cell injection. COX-2 inhibitors, 5-methyl-2-(2′-chloro-6′-fluoroanilino)-phenylacetic acid (hereinafter referred to as COX189) (10 and 30 mg/kg p.o.) and valdecoxib (30 mg/kg p.o.) are administered as described below and the results obtained compared with vehicle treated controls.
Intra-tibial inoculation of MRMT-1 cells induces a time-dependent hypersensitivity in the ipsilateral limb, measured as a shift in body weight to the contralateral limb. The increase in weight-bearing difference between contralateral and ipsilateral paw (weight shift from the affected to the unaffected limb) is evident by day 14 post-inoculation and continues to increase until day 20.

[2] = system: rat model of bone cancer pain (MRMT-1 rat mammary gland carcinoma cells); assay: Mechanical allodynia (static and dynamic) in rat model of bone cancer pain; settings: day 20; for static allodynia (punctuate stimulus), ipsilateral paw: 90 minutes after the last administration
Method: Adult female rats are given intra-tibial injections of MRMT-1 rat mammary gland carcinoma cells (3 μl, 10^7 cells/ml). These animals gradually develop mechanical hyperalgesia, mechanical allodynia (skin sensitivity to non-noxious stimuli) and hind limb sparing, beginning on day 12-14 following cell injection.

COX-1 = biological target: T1, COX-1 (Rattus norvegicus, UniProt Q63921); assay: Thromboxane B2 levels in samples from treated animals (COX-1 inhibition)
T1 construct: The levels of thromboxane B2 in the samples from COX189-treated animals; from tissue; host or cells: samples from treated rats
T1 sequence (Q63921 27-602): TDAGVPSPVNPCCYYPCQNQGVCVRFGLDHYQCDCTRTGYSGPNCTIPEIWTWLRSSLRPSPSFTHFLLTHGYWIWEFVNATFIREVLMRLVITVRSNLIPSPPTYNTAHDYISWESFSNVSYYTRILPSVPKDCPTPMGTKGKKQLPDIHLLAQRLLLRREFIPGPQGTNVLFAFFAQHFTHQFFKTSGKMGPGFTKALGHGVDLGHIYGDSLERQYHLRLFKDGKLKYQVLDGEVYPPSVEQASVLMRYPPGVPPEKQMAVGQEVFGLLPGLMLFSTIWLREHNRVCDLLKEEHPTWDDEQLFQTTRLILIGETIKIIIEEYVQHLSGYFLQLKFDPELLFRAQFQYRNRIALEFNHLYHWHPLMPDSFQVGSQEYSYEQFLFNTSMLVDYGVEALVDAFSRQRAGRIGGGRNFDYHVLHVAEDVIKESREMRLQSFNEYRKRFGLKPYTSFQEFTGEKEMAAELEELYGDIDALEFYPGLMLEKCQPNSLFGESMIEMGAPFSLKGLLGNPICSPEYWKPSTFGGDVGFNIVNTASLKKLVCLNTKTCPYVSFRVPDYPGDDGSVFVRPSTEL

[3] = system: rat model of bone cancer pain (MRMT-1 rat mammary gland carcinoma cells); assay: Radiologically observed structural changes and bone mineral density in rat model of bone cancer pain; settings: for radiologically observed structural changes / loss of bone mineral density compared to vehicle treated animals: day 20
Method: Adult female rats are given intra-tibial injections of MRMT-1 rat mammary gland carcinoma cells (3 μl, 10^7 cells/ml).

Row | SMILES | weight-bearing difference between contralateral and ipsilateral paw ([1]; 10 mg/kg p.o. repeated from day 10 post-inoculation, days 14, 17 and 20, measured 1 hour after drug administration) | weight-bearing difference between contralateral and ipsilateral paw ([1]; 30 mg/kg p.o. repeated from day 10 post-inoculation, days 14, 17 and 20, measured 1 hour after drug administration) | dose dependence of the effect on weight-bearing difference ([1]; 10 versus 30 mg/kg p.o.) | dynamic allodynia (light stroking of the skin), ipsilateral paw ([2]; 10 mg/kg p.o. repeated) | static allodynia (punctuate stimulus), ipsilateral paw ([2]; 10 mg/kg p.o. repeated) | dynamic allodynia (light stroking of the skin), ipsilateral paw ([2]; 30 mg/kg p.o. repeated) | static allodynia (punctuate stimulus), ipsilateral paw ([2]; 30 mg/kg p.o. repeated) | thromboxane B2 level, % of the levels in the vehicle-control animals (COX-1; 10 mg/kg) | thromboxane B2 level, % of the levels in the vehicle-control animals (COX-1; 30 mg/kg) | radiologically observed structural changes ([3]; 10 mg/kg repeated) | loss of bone mineral density compared to vehicle treated animals ([3]; 30 mg/kg repeated) | radiologically observed structural changes ([3]; 30 mg/kg repeated) | radiologically observed structural changes in an animal model of bone cancer pain ([3]; general statement, no dose given) | weight-bearing difference between contralateral and ipsilateral paw ([1]; 30 mg/kg p.o. repeated, day 20)
1 | Cc1ccc(Nc2c(F)cccc2Cl)c(CC(=O)O)c1 [COX189, 5-methyl-2-(2′-chloro-6′-fluoroanilino)-phenylacetic acid] | significantly attenuates | significantly attenuates | not dose-dependent | tendency to reduce | significantly reverses | reaches statistical significance | significantly reverses | 87.4±17.7% | 64.5±8.0% | significantly inhibits | significantly inhibit | significantly inhibits | inhibit the radiologically observed structural changes | –
2 | Cc1onc(-c2ccccc2)c1-c1ccc(S(N)(=O)=O)cc1 [valdecoxib, reference compound] | – | – | – | – | – | tendency to reduce | significantly reverses | – | 77.4±27.8% | – | no significant effect | no significant effect | – | significant
